According to patent US9206159B2, “Piperazine-piperidine compounds as hepatitis C virus inhibitors” (Theravance Biopharma R&D IP, LLC, priority 2012, dated 2015):

Experiments:
[1] = system: HCV genotype 1a replicon cell line; assay: HCV Genotype 1a Replicon Assay; type: cell-based, hepatitis C virus; details: Huh7.5 cell background, NS3-specific protease activity in lysates, 48 or 72 hours; for EC50: Hepatitis C virus, read-out: Genotype 1a (pEC50 class) (converted)
In short: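 Huh7.5-based subgenomic genotype 1a replicon cells, plated without G418, exposed to compound dose-responses (0.5% DMSO final) for 48 or 72 h at 37 °C. Lysate NS3/4a protease activity read with 15 μM FRET substrate, 20 min at 37 °C (Ex 340/Em 509 nm); EC50 from 4-parameter fit.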

[2] = system: HCV genotype 1b replicon cell line; assay: HCV Genotype 1b Replicon Assay; type: cell-based, hepatitis C virus; details: Huh7 cell background, Renilla luciferase readout, 48 hours
Description: Assay 1: HCV Genotype 1b Replicon Assay
The HCV genotype 1b replicon cell line was obtained from Apath LLC (Brooklyn, N.Y.) (APC144; Huh7 cell background). This subgenomic replicon contains the N-terminus of the HCV core protein fused to the neomycin-resistance selectable marker. The EMCV IRES lies downstream and drives expression of humanized Renilla luciferase fused to the non-structural proteins NS3-NS5B. This cell line was used to determine compound potency using the luciferase activity readout as a measurement of compound inhibition of replicon levels.
Cells were grown at 37° C. in a 5% CO2 humidified incubator in DMEM (Invitrogen) with 10% FBS (HyClone), 1×NEAA (Invitrogen), 1× Pen-Strep (Invitrogen), and 500 μg/mL G418 (Invitrogen). On day 1 of the assay, cells were plated at 10,000 cells/well in white 96-well tissue culture plates (Costar) in 200 μL media lacking G418. Four hours later, once the cells have adhered, the media was removed and replaced with media (no G418) containing dose-responses of test compounds. Compounds were initially diluted in DMSO and then diluted another 200× in media to bring the final DMSO concentration down to 0.5%. The cells were incubated with test compounds for 48 hours. At the end of the incubation period, media and compound were removed from the plates and the luciferase activity was determined using Promega Renilla-Glo reagents.
To analyze the data, the luciferase activity was plotted vs. the compound concentration, and EC50 values were determined from a 4-parameter robust fit model with the GraphPad Prism software package (GraphPad Software, Inc., San Diego, Calif.). Results are expressed as the negative decadic logarithm of the EC50 value, pEC50.
Test compounds having a higher pEC50 value in this assay show greater inhibition of HCV genotype 1b replication.

Row | SMILES | Genotype 1a (pEC50 class) [1] | Genotype 1b (pEC50 class) [2] | EC50 [1] [nM]
1 | COC(=O)N[C@H](C(=O)N1CCC[C@H]1c1nc(-c2ccc(-c3ccc(NC(=O)N4CCN(C5CCN(C(=O)OC(C)(C)C)CC5)CC4)cc3)cc2)c[nH]1)C(C)C [Example 1-1] | C (C represents pEC50 between and 9 and about 10, (EC50 between 1 nM and 0.1 nM)) | D (D represents pEC50>10 (EC50<0.1 nM)) | –
2 | COC(=O)N[C@H](C(=O)N1CCC[C@H]1c1nc(-c2ccc(-c3ccc(NC(=O)N4CCN(C5CCN(C(=O)C6CC6)CC5)CC4)cc3)cc2)c[nH]1)C(C)C [Example 1-8] | C (C represents pEC50 between and 9 and about 10, (EC50 between 1 nM and 0.1 nM)) | D (D represents pEC50>10 (EC50<0.1 nM)) | –
3 | COC(=O)N[C@H](C(=O)N1CCC[C@H]1c1nc(-c2ccc(-c3ccc(NC(=O)N4CCN(C5CCN(C(=O)[C@H]6CC6(C)C)CC5)CC4)cc3OC(F)(F)F)cc2)c[nH]1)C(C)C [Example 1-12] | C (C represents pEC50 between and 9 and about 10, (EC50 between 1 nM and 0.1 nM)) | D (D represents pEC50>10 (EC50<0.1 nM)) | –
4 | COC(=O)N[C@H](C(=O)N1CCC[C@H]1c1nc(-c2ccc(-c3ccc(NC(=O)N4CCN(C5CCN(C(=O)C6CC6)CC5)CC4)cc3OC(F)(F)F)cc2)c[nH]1)C(C)C [Example 1-13] | C (C represents pEC50 between and 9 and about 10, (EC50 between 1 nM and 0.1 nM)) | D (D represents pEC50>10 (EC50<0.1 nM)) | –
5 | COC(=O)N[C@H](C(=O)N1CCC[C@H]1c1nc(-c2ccc(-c3ccc(NC(=O)N4CCN(C5CCN(C(=O)OC(C)(C)C)CC5)CC4)cc3OC(F)(F)F)cc2)c[nH]1)C(C)C [Example 1-14] | C (C represents pEC50 between and 9 and about 10, (EC50 between 1 nM and 0.1 nM)) | D (D represents pEC50>10 (EC50<0.1 nM)) | –
6 | COC(=O)N[C@H](C(=O)N1CCC[C@H]1c1nc(-c2ccc(-c3ccc(NC(=O)N4CCN(C5CCN(C(=O)C(C)(C)CO)CC5)CC4)cc3OC(F)(F)F)cc2)c[nH]1)C(C)C [Example 1-17] | C (C represents pEC50 between and 9 and about 10, (EC50 between 1 nM and 0.1 nM)) | D (D represents pEC50>10 (EC50<0.1 nM)) | –
7 | COC(=O)N[C@H](C(=O)N1C[C@@H](C)C[C@H]1c1nc(-c2ccc(-c3cc(F)c(NC(=O)N4CCN(C5CCN(C(=O)C(C)(C)C)CC5)CC4)cc3OC(F)(F)F)cc2)c[nH]1)C(C)C [Example 2-5] | D (D represents pEC50>10 (EC50<0.1 nM)) | D (D represents pEC50>10 (EC50<0.1 nM)) | –
8 | COC(=O)N[C@H](C(=O)N1C[C@@H](C)C[C@H]1c1nc2c(ccc3cc(-c4ccc(NC(=O)N5CCN(C6CCN(C(=O)C7CCC7(C)C)CC6)CC5)cc4OC(F)(F)F)ccc32)[nH]1)C(C)C (some centres unmarked) [Example 6-3] | – | – | < 0.1
9 | COC(=O)N[C@H](C(=O)N1C[C@@H](C)C[C@H]1c1nc(-c2ccc(-c3cc(Cl)c(NC(=O)N4CCN(C5CCN(C(=O)C6CCC6)CC5)CC4)cc3OC(F)(F)F)cc2)c[nH]1)C(C)C [Example 6] | – | – | 0.1 to 1
10 | COC(=O)N[C@H](C(=O)N1C[C@@H](C)C[C@H]1c1nc2c(ccc3cc(-c4ccc(NC(=O)N5CCN(C6CCN(C(=O)OC(C)(C)C)CC6)CC5)cc4OC(F)(F)F)ccc32)[nH]1)C1CCOCC1 [Example 7-1] | – | – | < 0.1
11 | COC(=O)N[C@H](C(=O)N1C[C@@H](C)C[C@H]1c1nc2c(ccc3cc(-c4ccc(NC(=O)N5CCN(C6CCN(C(=O)C(C)(C)C)CC6)CC5)cc4OC(F)(F)F)ccc32)[nH]1)C1CCOCC1 [Example 7-2] | – | – | < 0.1
12 | COC(=O)N[C@H](C(=O)N1C[C@@H](C)C[C@H]1c1nc2c(ccc3cc(-c4ccc(NC(=O)N5CCN(C6CCN(C(=O)C(C)(C)CO)CC6)CC5)cc4OC(F)(F)F)ccc32)[nH]1)C1CCOCC1 [Example 7-3] | – | – | 0.1 to 1
13 | COC(=O)N[C@H](C(=O)N1C[C@@H](C)C[C@H]1c1nc2c(ccc3cc(-c4ccc(NC(=O)N5CCN(C6CCN(C(=O)C7CC7)CC6)CC5)cc4OC(F)(F)F)ccc32)[nH]1)C1CCOCC1 [Example 7-4] | – | – | < 0.1
14 | COC(=O)N[C@H](C(=O)N1C[C@@H](C)C[C@H]1c1nc2c(ccc3cc(-c4ccc(NC(=O)N5CCN(C6CCN(C(=O)[C@H]7CC7(C)C)CC6)CC5)cc4OC(F)(F)F)ccc32)[nH]1)C1CCOCC1 [Example 7-5] | D (D represents pEC50>10 (EC50<0.1 nM)) | – | –
15 | COC(=O)N[C@H](C(=O)N1C[C@@H](C)C[C@H]1c1nc(-c2ccc(-c3ccc(NC(=O)N4CCN(C5CCN(C(=O)C(C)(C)C)CC5)CC4)cc3OC(F)(F)F)cc2)c(F)[nH]1)C(C)C [Example 8, [(S)-1-((2S,4S)-2-{4-[4′-({4-[1-(2,2-Dimethyl-propionyl)-piperidin-4-yl]-piperazine-1-carbonyl}-amino)-2′-trifluoromethoxy-biphenyl-4-yl]-5-fluoro-1H-imidazol-2-yl}-4-methyl-pyrrolidine-1-carbonyl)-2-methyl-propyl]-carbamic acid methyl ester] | – | – | < 0.1
16 | COC(=O)N[C@H](C(=O)N1CCC[C@H]1c1nc(-c2ccc(-c3ccc(NC(=O)N4CC5CCC(C4)N5C4CCN(C(=O)C5CC5)CC4)cc3OC(F)(F)F)cc2)c[nH]1)C(C)C [Example 8-1] | – | – | 1 to 10
17 | COC(=O)N[C@H](C(=O)N1CCC[C@H]1c1nc(-c2ccc(-c3ccc(NC(=O)N4CC5CCC(C4)N5C4CCN(C(=O)OC(C)(C)C)CC4)cc3OC(F)(F)F)cc2)c[nH]1)C(C)C [Example 8-2] | – | – | 0.1 to 1
18 | COC(=O)N[C@H](C(=O)N1[C@@H](C)CC[C@H]1c1nc(-c2ccc(-c3ccc(NC(=O)N4CCN(C5CCN(C(=O)C(C)(C)C)CC5)CC4)cc3OC(F)(F)F)cc2)c[nH]1)C(C)C [Example 8-3] | – | – | 0.1 to 1
19 | COC(=O)N[C@H](C(=O)N1[C@@H](C)CC[C@H]1c1nc(-c2ccc(-c3ccc(NC(=O)N4CCN(C5CCN(C(=O)C6CC6)CC5)CC4)cc3OC(F)(F)F)cc2)c[nH]1)C(C)C [Example 8-4] | – | – | 0.1 to 1
20 | COC(=O)N[C@H](C(=O)N1[C@@H](C)CC[C@H]1c1nc(-c2ccc(-c3ccc(NC(=O)N4CCN(C5CCN(C(=O)[C@H]6CC6(C)C)CC5)CC4)cc3OC(F)(F)F)cc2)c[nH]1)C(C)C [Example 8-5] | – | – | 0.1 to 1
21 | COC(=O)N[C@H](C(=O)N1C[C@@H](C)C[C@H]1c1nc(-c2ccc(-c3ccc(NC(=O)N4CCN(C5CCN(C(=O)C6CC6)CC5)CC4)cc3OC(F)(F)F)cc2)c(F)[nH]1)C(C)C [Example 9] | – | – | < 0.1
22 | COC(=O)N[C@H](C(=O)N1C[C@@H](C)C[C@H]1c1nc(-c2ccc(-c3ccc(NC(=O)N4CCN(C5CCN(C(=O)[C@H]6CC6(C)C)CC5)CC4)cc3OC(F)(F)F)cc2)c(F)[nH]1)C(C)C [Example 10] | D (D represents pEC50>10 (EC50<0.1 nM)) | – | –
23 | COC(=O)N[C@H](C(=O)N1C[C@@H](C)C[C@H]1c1nc(-c2ccc(-c3cc(Cl)c(NC(=O)N4CCC(N5CCN(C(=O)C(C)(C)C)C[C@@H]5C)CC4)cc3OC(F)(F)F)cc2)c[nH]1)C(C)C [Example 12, [(S)-1-((2S,4S)-2-{4-[5′-Chloro-4′-({4-[(S)-4-(2,2-dimethyl-propionyl)-2-methyl-piperazin-1-yl]-piperidine-1-carbonyl}-amino)-2′-trifluoromethoxy-biphenyl-4-yl]-1H-imidazol-2-yl}-4-methyl-pyrrolidine-1-carbonyl)-2-methyl-propyl]-carbamic acid methyl ester] | – | – | 0.1 to 1
24 | COC(=O)N[C@H](C(=O)N1C[C@@H](OC)C[C@H]1c1nc(-c2ccc(-c3ccc(NC(=O)N4CCC(N5CCN(C(=O)C6CCC6(C)C)CC5)CC4)cc3OC(F)(F)F)cc2)c[nH]1)C(C)C (stereo partly drawn) [Example 14, [(S)-1-((2S,4S)-2-{4-[4′-({4-[4-(2,2-Dimethyl-cyclobutanecarbonyl)-piperazin-1-yl]-piperidine-1-carbonyl}-amino)-2′-trifluoromethoxy-biphenyl-4-yl]-1H-imidazol-2-yl}-4-methoxy-pyrrolidine-1-carbonyl)-2-methyl-propyl]-carbamic acid methyl ester] | – | – | 0.1 to 1
25 | COC(=O)N[C@H](C(=O)N1C[C@@H](C)C[C@H]1c1nc2c(ccc3cc(-c4ccc(NC(=O)N5CCN(C6CCN(C(=O)C(C)(C)C)CC6)CC5)cc4OC(F)(F)F)ccc32)[nH]1)C(C)C [Example 15, [(S)-1-((2S,4S)-2-{7-[4-({4-[1-(2,2-Dimethyl-propionyl)-piperidin-4-yl]-piperazine-1-carbonyl}-amino)-2-trifluoromethoxy-phenyl]-3H-naphtho[1,2-d]imidazol-2-yl}-4-methyl-pyrrolidine-1-carbonyl)-2-methyl-propyl]-carbamic acid methyl ester] | – | – | < 0.1
